Measured values: US11802127B2, “3,4-dihydro-2,7-naphthyridine-1,6(2H,7H)-diones as MEK inhibitors” (Pfizer Inc., priority 2021, dated 2023)
pIC50: −log10 of the molar value. Where a name gives a salt, the structure may show the parent alone.

Columns and labels:
[1] = tested on: ERK1/2(Thr202/Tyr204) phosphorylation (MEK-dependent) in A375 cells; experiment: Cellular Phospho-p44/42 MAPK (Erk1/2) (Thr202/Tyr204) Assay; assay type: cell-based; settings: Homo sapiens, A-375, 1-hour incubation, pERK1/2 (Thr202/Tyr204) In-Cell Western normalized to GAPDH
Method: Inhibition of ERK1/2(Thr202/Tyr204) phosphorylation was determined by the following cellular assay, which comprises incubating cells with a compound for 1 hour and quantifying pERK signal by In-Cell Western on fixed cells and normalizing to GAPDH signal. A375 cells were obtained from the ATCC and grown in DMEM supplemented with 10% fetal bovine serum, penicillin/streptomycin, Glutamax®, non-essential amino acids, and sodium pyruvate. Cells were plated in 96-well plates at 30,000 cells/well and allowed to attach overnight at 37° C./5% CO2. Cells were treated with compounds prepared as a 10-point, 1:3 dilution series (range: 20 μM-0.05 nM; maximum concentration varied from 20 μM-1 μM), with a final DMSO concentration of 0.5%. Control wells contained either 0.5% DMSO alone (no inhibition control) or 1 μM of a potent control compound (complete inhibition control). After a 1-hour incubation, cells were fixed in 3.7% formaldehyde in dPBS (Dulbecco's phosphate-buffered saline) at room temperature for 20 minutes. Cells were then washed with dPBS and permeabilized in 100% MeOH at room temperature for 10 minutes. Following permeabilization, cells were washed in dPBS and incubated in LI-COR Blocking Buffer (LI-COR Biosciences, Cat #927-40000) for 1 hour or longer. Plates were then incubated with an antibody specific for the MEK-dependent ERK1/2 phosphorylation sites, threonine 202 and tyrosine 204 (Cell Signaling Technologies; Cat #9101), downstream of MEK in the MAP kinase signal transduction pathway, as well as GAPDH (Millipore; Cat #MAB374). pErk1/2 (Thr202/Tyr204) antibody was diluted in LI-COR blocking buffer containing 0.05% Tween-20 at 1:250; GAPDH was diluted at 1:2,500. The plates were incubated overnight at 4° C. After washing with PBS/0.05% Tween-20, the cells were incubated with fluorescently-labeled secondary antibodies (Anti-rabbit-Alexa Flour680, Invitrogen Cat #A21109; Anti-mouse-IRDye800CW, LI-COR Biosciences Cat #926-32210, both at 1:1000 dilution) for 1 hour. Cells were then washed, as above, and analyzed for fluorescence at both 680 and 800 nm wavelengths using the Odyssey CLx Infrared Imaging System (LI-COR Biosciences). Phosphorylated Erk1/2 (Thr202/Tyr204) signal was normalized to GAPDH signal for each well.

BCRP (hBCRP) = target: T1, BCRP (hBCRP) (Homo sapiens, UniProt Q9UNQ0); experiment: Efflux ratio in BCRP transfected MDCKII canine P-gp knockout cells; assay type: in vitro ADME; settings: Papp(B−A)/Papp(A−B), read-out: Efflux ratio MDCKII-hBCRP knock-in,canine pg-P KO
T1 construct: expressed in transfected cells; host or cells: MDCKII (canine kidney) cells, canine P-gp knockout, transfected with BCRP
T1 sequence (Q9UNQ0 1-655): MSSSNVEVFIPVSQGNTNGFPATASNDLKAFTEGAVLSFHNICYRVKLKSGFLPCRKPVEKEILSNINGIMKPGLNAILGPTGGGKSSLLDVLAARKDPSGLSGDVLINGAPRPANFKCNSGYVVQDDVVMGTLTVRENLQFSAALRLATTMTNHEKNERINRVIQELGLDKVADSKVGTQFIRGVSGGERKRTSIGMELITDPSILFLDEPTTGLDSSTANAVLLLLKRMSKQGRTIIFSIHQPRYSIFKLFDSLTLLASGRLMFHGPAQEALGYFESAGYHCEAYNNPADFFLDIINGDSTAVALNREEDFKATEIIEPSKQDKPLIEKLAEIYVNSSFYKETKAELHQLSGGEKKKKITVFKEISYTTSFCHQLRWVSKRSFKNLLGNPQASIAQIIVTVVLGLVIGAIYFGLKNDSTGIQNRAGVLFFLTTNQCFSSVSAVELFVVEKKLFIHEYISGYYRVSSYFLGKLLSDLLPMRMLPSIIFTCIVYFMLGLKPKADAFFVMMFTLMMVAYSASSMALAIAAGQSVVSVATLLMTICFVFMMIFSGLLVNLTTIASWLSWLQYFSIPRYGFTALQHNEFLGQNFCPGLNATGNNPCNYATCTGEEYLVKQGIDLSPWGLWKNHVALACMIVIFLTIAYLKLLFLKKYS
Method: BCRP transfected MDCKII canine P-gp knockout cell line was cultured and plated according to manufacturer's recommendations.
Both positive and negative controls were used to assess functionality of P-gp or BCRP efflux in the assays. Stock solutions for assay controls and the test article were prepared in DMSO for final test concentrations of 10 and 1 μM, respectively. Final organic concentration in the assay was 1%. All dosing solutions contained 10 μM lucifer yellow to monitor LLC-PK1 or MDCKII cell monolayer integrity.
For the apical to basolateral determination (A to B), 75 μL of the test article in transport buffer were added to the apical side of the individual transwells and 250 μL of basolateral media, without compound or lucifer yellow, were added to each well. For the basolateral to apical determination (B to A), 250 μL of test article in transport buffer were added to each well and 75 μL transport buffer, without compound or lucifer yellow, were added to each transwell. All tests were performed in triplicate, and each compound was tested for both apical to basolateral and basolateral to apical transport. The plates were incubated for 2 hours on a Lab-Line Instruments Titer Orbital Shaker (VWR, West Chester, PA) at 50 rpm and 37° C. with 5% CO2. All culture plates were removed from the incubator and 50 μL of media were removed from the apical and basolateral portion of each well and added to 150 μL of 1 μM labetalol in 2:1 acetonitrile (acetonitrile): H2O, v/v.
The plates were read using a Molecular Devices (Sunnyvale, CA) Gemini Fluorometer to evaluate the lucifer yellow concentrations at excitation/emission wavelengths of 425/535 nm. These values were accepted when found to be below 2% for apical to basolateral and 5% basolateral to apical flux across the MDR1-transfected LLC-PK1 or BCRP-transfected MDCKII cell monolayers. The plates were sealed and the contents of each well analyzed by LC-MS/MS. The compound concentrations were determined from the ratio of the peak areas of the compound to the internal standard (labetalol) in comparison to the dosing solution.
The LC-MS/MS system was comprised of an HTS-PAL autosampler (Leap Technologies, Carrboro, NC), an HP1200 HPLC (Agilent, Palo Alto, CA), and a MDS Sciex 4000 Q Trap system (Applied Biosystems, Foster City, CA). […] The total run time, including re-equilibration, for a single injection was 1.2 minutes. Mass spectrometric detection of the analytes was accomplished using the ion spray positive mode. Analyte responses were measured by multiple reaction monitoring (MRM) of transitions unique to each compound (the protonated precursor ion and selected product ions for each test article and m/z 329 to m/z 162 for labetalol, the internal standard).
An efflux ratio is calculated from the mean apical to basolateral (A−B) Papp data and basolateral to apical (B−A) Papp data: Efflux ratio=Papp(B−A)/Papp(A−B)

efflux ratio at 2 h, 1 μM (BCRP (hBCRP)) | Structure (SMILES) | pIC50 [1]
 | Cn1c(Nc2ccc(Br)cc2F)c2c(cc1=O)CCN(OCC1CC1)C2=O [Example 2, 8-((4-bromo-2-fluorophenyl)amino)-2-(cyclopropylmethoxy)-7-methyl-3,4-dihydro-2,7-naphthyridine-1,6(2H,7H)-dione] | 5.99
 | Cn1c(Nc2ccc(Br)c(F)c2F)c2c(cc1=O)CCN(OCCO)C2=O [Example 11, 8-((4-bromo-2,3-difluorophenyl)amino)-2-(2-hydroxyethoxy)-7-methyl-3,4-dihydro-2,7-naphthyridine-1,6(2H,7H)-dione] | 6.70
 | Cn1c(Nc2ccc(Br)c(Cl)c2F)c2c(cc1=O)CCN(OCCO)C2=O [Example 12, 8-((4-bromo-3-chloro-2-fluorophenyl)amino)-2-(2-hydroxyethoxy)-7-methyl-3,4-dihydro-2,7-naphthyridine-1,6(2H,7H)-dione] | 5.97
 | Cn1c(Nc2ccc(C(F)(F)F)cc2F)c2c(cc1=O)CCN(OCCO)C2=O [Example 13, 8-((2-fluoro-4-(trifluoromethyl)phenyl)amino)-2-(2-hydroxyethoxy)-7-methyl-3,4-dihydro-2,7-naphthyridine-1,6(2H,7H)-dione] | 6.75
 | COc1ccc(Nc2c3c(cc(=O)n2C)CCN(OCCO)C3=O)c(F)c1 [Example 16, 8-((2-fluoro-4-methoxyphenyl)amino)-2-(2-hydroxyethoxy)-7-methyl-3,4-dihydro-2,7-naphthyridine-1,6(2H,7H)-dione] | 6.56
 | Cn1c(Nc2ccc(SC(F)(F)F)cc2F)c2c(cc1=O)CCN(OCCO)C2=O [Example 17, 8-((2-fluoro-4-((trifluoromethyl)thio)phenyl)amino)-2-(2-hydroxyethoxy)-7-methyl-3,4-dihydro-2,7-naphthyridine-1,6(2H,7H)-dione] | 6.59
 | CC(=O)c1ccc(Nc2c3c(cc(=O)n2C)CCN(OCCO)C3=O)c(F)c1 [Example 20, 8-((4-acetyl-2-fluorophenyl)amino)-2-(2-hydroxyethoxy)-7-methyl-3,4-dihydro-2,7-naphthyridine-1,6(2H,7H)-dione] | 6.20
 | Cn1c(Nc2ccc(OC(F)(F)F)cc2F)c2c(cc1=O)CCN(OCCO)C2=O [Example 24, 8-((2-fluoro-4-(trifluoromethoxy)phenyl)amino)-2-(2-hydroxyethoxy)-7-methyl-3,4-dihydro-2,7-naphthyridine-1,6(2H,7H)-dione] | 6.33
 | Cn1c(Nc2ccc(I)cc2F)c2c(cc1=O)CCN(OC(C)(C)C)C2=O [Example 30, 2-(tert-butoxy)-8-((2-fluoro-4-iodophenyl)amino)-7-methyl-3,4-dihydro-2,7-naphthyridine-1,6(2H,7H)-dione] | 6.38
 | C[C@@H](O)CON1CCc2cc(=O)n(C)c(Nc3ccc(Br)cc3F)c2C1=O [Example 34, (R)-8-((4-bromo-2-fluorophenyl)amino)-2-(2-hydroxypropoxy)-7-methyl-3,4-dihydro-2,7-naphthyridine-1,6(2H,7H)-dione] | 6.68
 | Cc1c2c(c(Nc3ccc(Br)cc3F)n(C)c1=O)C(=O)N(OC[C@@H](C)O)CC2 [Example 35, (R)-8-((4-bromo-2-fluorophenyl)amino)-2-(2-hydroxypropoxy)-5,7-dimethyl-3,4-dihydro-2,7-naphthyridine-1,6(2H,7H)-dione] | 6.64
 | Cn1c(Nc2ccccc2F)c2c(c(I)c1=O)CCN(OCCO)C2=O [Example 41, 8-((2-fluorophenyl)amino)-2-(2-hydroxyethoxy)-5-iodo-7-methyl-3,4-dihydro-2,7-naphthyridine-1,6(2H,7H)-dione] | 7.13
 | Cc1c2c(c(Nc3ccccc3F)n(C)c1=O)C(=O)N(OCCO)CC2Br (centres unmarked) [Example 43, 4-bromo-8-((2-fluorophenyl)amino)-2-(2-hydroxyethoxy)-5,7-dimethyl-3,4-dihydro-2,7-naphthyridine-1,6(2H,7H)-dione] | 6.81
 | CCCc1ccc(Nc2c3c(cc(=O)n2C)CCNC3=O)c(F)c1 [Example 54, 8-((2-fluoro-4-propylphenyl)amino)-7-methyl-3,4-dihydro-2,7-naphthyridine-1,6(2H,7H)-dione] | 6.78
 | Cc1c2c(c(Nc3ccc(OC(F)F)cc3F)n(C)c1=O)C(=O)NCC2 [Example 58, 8-((4-(difluoromethoxy)-2-fluorophenyl)amino)-5,7-dimethyl-3,4-dihydro-2,7-naphthyrdine-1,6(2H,7H)-dione] | 7.35
 | Cn1c(Nc2ccc(Br)cc2Cl)c2c(cc1=O)CCNC2=O [Example 59, 8-((4-bromo-2-chlorophenyl)amino)-7-methyl-3,4-dihydro-2,7-naphthyridine-1,6(2H,7H)-dione] | 7.14
 | Cn1c(Nc2ccc(Br)cc2F)c2c(cc1=O)CCN(CCO)C2=O [Example 60, 8-((4-bromo-2-fluorophenyl)amino)-2-(2-hydroxyethyl)-7-methyl-3,4-dihydro-2,7-naphthyridine-1,6(2H,7H)-dione trifluoroacetate] | 6.29
 | CSc1ccc(Nc2c3c(cc(=O)n2C)CCN(OCC(F)F)C3=O)c(F)c1 [Example 63, 2-(2,2-difluoroethoxy)-8-((2-fluoro-4-(methylthio)phenyl)amino)-7-methyl-3,4-dihydro-2,7-naphthyridine-1,6(2H,7H)-dione] | 6.94
1.5 | Cn1c(Nc2ccc(Br)cc2F)c2c(cc1=O)C(c1ccccc1)CNC2=O (centres unmarked) [Example 64, 8-((4-bromo-2-fluorophenyl)amino)-7-methyl-4-phenyl-3,4-dihydro-2,7-naphthyridine-1,6(2H,7H)-dione] | 8.70
